Data: patent US6130250A, “Veterinary use of a pleuromutilin derivative” (priority 1996, dated 2000)
Counter-ions that a name gives are not always drawn. Like-named read-outs stand apart in the source and are kept apart here.

Experiments:
[1] = test system: Mycoplasma hyosynoviae; assay: MIC assay, 7 field isolates of Mycoplasma hyosynoviae; format: cell-based; settings: for MIC: Mycoplasma, 7 field isolates
Description: Tissue samples are obtained from the lungs of pigs from various enzootic pneumonia of pigs (EPP)--affected herds. Samples are shipped on dry ice for culture. Four isolates from lung samples initially isolated for recovery of Mycoplasma hyopneumoniae were reisolated for Mycoplasma hyosynoviae after it had been noted from the lung samples submitted (re-stored at -70° C.), during culture for M. hyopneumoniae, that some samples yielded luxuriant growth of colonies having the typical morphology of Mycoplasma hyosynoviae. Three further isolates were recovered from other lung samples provided. All isolates were serologically identified by disc growth inhibition with specific rabbit antiserum raised against Mycoplasma hyosynoviae. A commerically available solid medium (Mycoplasma Experience Ltd.) is used to isolate M. hyosynoviae from lung tissue. A liquid medium (Mycoplasma Experience Ltd.) containing phenol red and arginine (pH 7.0) is used for the MIC assay.
Stock solutions of test compound are prepared at 1 mg/ml concentration in deionised water, sterilised by filtration through 0.2μ pore size membrane filters (Sartorius Minisart, N) and stored at -20° C. For use in the MIC tests the stock solutions are diluted in liquid medium to double the final concentrations required. MIC tests are carried out according to the method of Tanner and Wu, Avian Diseases 36 (1992) 714-717. Actively growing challenge cultures are prepared either from 1 ml aliquots of broth cultures stored at -70° C. or from cultures stored on agar at -70° C. The challenge cultures are diluted to give a target titre of 10^3 to 10^5 colour changing units/ml. 0.1 ml aliquots of challenge inocula are mixed with 0.1 ml aliquots of antibiotic dilution in microtitre wells. Each microtitre plate contains uninoculated media at pH 7.6 (end point control) and antibiotic-free inoculated challenge controls. All plates are sealed with adhesive film and incubated aerobically at 36° C. MICs are recorded when the colour change in the challenge control wells matches the pH of the end point control. The MIC is the lowest concentration showing no colour change.

[2] = test system: Mycoplasma gallisepticum; assay: Challenge study, treatment of Mycoplasma gallisepticum infection; format: in vivo, male broiler chicks; settings: for mortality: valnemulin all three concentrations, tiamulin 0.05%
Excerpt: Groups of male broiler chicks are infected with a virulent strain of Mycoplasma gallisepticum (MG) and each group medicated respectively with valnemulin at a concentration of 0.0125%, 0.025%, 0.05%, tiamulin at the same concentration, tylosin 0.05% and a […], spectinomycin combination (Linco-Spectin) 0.083%. There is also one infected group left untreated and an uninfected group. The chicks are infected at two days of age by the injection of 3.4×10^5 organisms into each lung. Medication in the drinking water is commenced 24 hours later for three successive days except for Linco-Spectin with which treatment was continued for 5 days.

[3] = test system: Serpulina hyodysenteriae; assay: MIC determination on agar, 10 S. hyodysenteriae strains; format: cell-based
[4] = test system: Pasteurella multocida; assay: MIC against Pasteurella multocida isolates; format: cell-based; settings: for MIC: Pasteurella multocida, 10 isolates
Description: (§1) The minimal inhibitory concentration (MIC) of valnemulin hydrochloride against recent isolates of Pasteurelia multocida, Haemophilus pleuropneumoniae and Haemophilus parasuis originating from porcine respiratory material is determined and compared with tiamulin. […] Three of the Pasteurella isolates were toxigenic strains of Pasteurella multocida. For H. pleuropneumoniae and H. parasuis, on the day before testing a single loopful of each of the pure cultures is inoculated into 10 ml of Todd & Hewitt broth (Unipath CM190) containing 1% donor calf serum and 2 mg per ml of nicotinamide adenine dinucleotide (NAD). For P. multocida, […] a single loopful of each of the pure cultures is inoculated into 10 ml of nutrient broth No. 2 (Unipath CM67) containing 1% donor calf serum. Each of the prepared broth cultures are incubated for 18 hours at 37° C. in 10% CO2. […] For each test compound, standard control cultures of Oxford Staphylococcus aureus NCTC 6571 are also set up to validate the results of the MIC tests. In each case, broth cultures set up from the control organisms are identical to those of the organisms under test. Valnemulin is a hydrochloride, tiamulin is used as the hydrogen fumarate. […] Sensitised agar (Oxoid CM409) containing lysed horse blood (Oxoid SR50) is prepared according to the manufacturer's recommendations and adjusted to pH 7.4 it necessary. […] Four replicate plates are prepared from each dilution. […] After inoculation the growth of the organisms is examined initially by eye followed by microscopic examination on a stereo zoom microscope. The MIC value is taken as the lowest concentration of test compound at which no growth can be detected at the point of inoculation on all four plates by microscopic examination.

[5] = test system: Haemophilus pleuropneumoniae; assay: MIC against Haemophilus pleuropneumoniae isolates; format: cell-based; settings: for MIC: Actinobacillus pleuropneumoniae, 10 isolates
Description: as §1

[6] = test system: Haemophilus parasuis; assay: MIC against Haemophilus parasuis isolates; format: cell-based; settings: for MIC: Glaesserella parasuis, 3 isolates
Description: as §1

SMILES | MIC [1] [µg/mL] | mortality [2] | number of strains with MIC 1 μg/ml ([3]; 10 S. hyodysenteriae strains) | MIC ([4]; 18 h, read-out: MIC mean) [µg/mL] | MIC ([4]; read-out: MIC range) [µg/mL] | MIC ([5]; 18 h, read-out: MIC mean) [µg/mL] | MIC ([5]; read-out: MIC range) [µg/mL] | MIC ([6]; 18 h, read-out: MIC mean) [µg/mL] | MIC ([6]; read-out: MIC range) [µg/mL] | other results
C=C[C@]1(C)C[C@@H](OC(=O)CSCCN(CC)CC)[C@]2(C)[C@H](C)CC[C@]3(CCC(=O)[C@H]32)[C@@H](C)[C@@H]1O [tiamulin hydrogen fumarate] | 0.0025 to 0.025 | no more than 5% | 2 | 9.2 | 4 to 16 | 4.5 | 0.125 to 16 | 0.7 | 0.5 to 1 | lesions ([2]; tiamulin and tylosin): only a few; number of strains with MIC 0.125 μg/ml ([3]; 10 S. hyodysenteriae strains): 6; number of strains with MIC 0.250 μg/ml ([3]; 10 S. hyodysenteriae strains): 1; number of strains with MIC 0.500 μg/ml ([3]; 10 S. hyodysenteriae strains): 1
C=C[C@]1(C)C[C@@H](OC(=O)CSC(C)(C)CNC(=O)[C@H](N)C(C)C)[C@]2(C)[C@H](C)CC[C@]3(CCC(=O)[C@H]32)[C@@H](C)[C@@H]1O [valnemulin hydrochloride, 14-O-[1-[(R)-2-amino-3-methylbutyrylamino]-2-methylpropan-2-ylthioacetyl]mutilin] | 0.0001 to 0.0005 | no more than 5% | 1 | 3.8 | 2 to 8 | 0.85 | 0.125 to 4 | 0.25 | 0.25 | sensitivity of isolates in words ([1]; seven field isolates): much higher than for the other two compounds; overall efficacy vs comparators ([2]; valnemulin 0.025% and 0.05% in drinking water): at least as good as or better than tiamulin at 0.05% or tylosin at 0.05% and very much better than Linco-Spectin; recovery of Mycoplasma at 23 days ([2]; valnemulin 3 groups, tylosin 0.05%): not recovered; weight gains ([2]; valnemulin at all concentrations): higher than for the tiamulin treated groups and equal to the tylosin group; lesions ([2]; valnemulin highest and lowest doses): Lesions were not seen; number of strains with MIC 0.0156 μg/ml ([3]; 10 S. hyodysenteriae strains): 2; number of strains with MIC 0.0312 μg/ml ([3]; 10 S. hyodysenteriae strains): 4; MIC times less than those of tiamulin ([3]; S. hyodysenteriae strains): 2-32 times; susceptibility of S. hyodysenteriae strains ([3]; all strains): highly susceptible; mean increase in activity compared with tiamulin ([4]; P. multocida): two and a half fold; mean increase in activity compared with tiamulin ([5]; H. pleuropneumoniae): five and a half fold; mean increase in activity compared with tiamulin ([6]; H. parasuis): three fold
